From paper PMC5540273, “Progress towards a public chemogenomic set for protein kinases and a call for contributions” (PLoS ONE, 2017)

What was measured:
Assay in all cases: KINOMEscan competition binding
HCK = HCK (Homo sapiens, UniProt P08631); details: read-out: %Inh HCK
ERK8 = target: T1, ERK8 (Homo sapiens, UniProt Q8TD08); details: read-out: %Inh ERK8
T1 sequence (Q8TD08 1-544): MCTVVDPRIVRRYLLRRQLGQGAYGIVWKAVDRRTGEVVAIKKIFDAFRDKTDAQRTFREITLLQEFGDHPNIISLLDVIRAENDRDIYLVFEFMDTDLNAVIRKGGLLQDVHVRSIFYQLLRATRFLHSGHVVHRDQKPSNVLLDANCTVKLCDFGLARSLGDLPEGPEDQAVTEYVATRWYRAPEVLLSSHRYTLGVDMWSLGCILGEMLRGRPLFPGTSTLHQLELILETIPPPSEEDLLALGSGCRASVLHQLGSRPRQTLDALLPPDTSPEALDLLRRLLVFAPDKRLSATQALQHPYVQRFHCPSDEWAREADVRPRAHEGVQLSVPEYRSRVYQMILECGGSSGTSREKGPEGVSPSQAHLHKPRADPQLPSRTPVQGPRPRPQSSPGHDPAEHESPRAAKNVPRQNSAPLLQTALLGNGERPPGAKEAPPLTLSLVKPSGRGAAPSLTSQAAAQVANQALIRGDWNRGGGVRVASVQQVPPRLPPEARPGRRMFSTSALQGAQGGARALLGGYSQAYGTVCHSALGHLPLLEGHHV

DCAMKL2 = target: T2, DCAMKL2 (Homo sapiens, UniProt Q8N568); details: read-out: %Inh DCAMKL2
T2 sequence (Q8N568 1-766): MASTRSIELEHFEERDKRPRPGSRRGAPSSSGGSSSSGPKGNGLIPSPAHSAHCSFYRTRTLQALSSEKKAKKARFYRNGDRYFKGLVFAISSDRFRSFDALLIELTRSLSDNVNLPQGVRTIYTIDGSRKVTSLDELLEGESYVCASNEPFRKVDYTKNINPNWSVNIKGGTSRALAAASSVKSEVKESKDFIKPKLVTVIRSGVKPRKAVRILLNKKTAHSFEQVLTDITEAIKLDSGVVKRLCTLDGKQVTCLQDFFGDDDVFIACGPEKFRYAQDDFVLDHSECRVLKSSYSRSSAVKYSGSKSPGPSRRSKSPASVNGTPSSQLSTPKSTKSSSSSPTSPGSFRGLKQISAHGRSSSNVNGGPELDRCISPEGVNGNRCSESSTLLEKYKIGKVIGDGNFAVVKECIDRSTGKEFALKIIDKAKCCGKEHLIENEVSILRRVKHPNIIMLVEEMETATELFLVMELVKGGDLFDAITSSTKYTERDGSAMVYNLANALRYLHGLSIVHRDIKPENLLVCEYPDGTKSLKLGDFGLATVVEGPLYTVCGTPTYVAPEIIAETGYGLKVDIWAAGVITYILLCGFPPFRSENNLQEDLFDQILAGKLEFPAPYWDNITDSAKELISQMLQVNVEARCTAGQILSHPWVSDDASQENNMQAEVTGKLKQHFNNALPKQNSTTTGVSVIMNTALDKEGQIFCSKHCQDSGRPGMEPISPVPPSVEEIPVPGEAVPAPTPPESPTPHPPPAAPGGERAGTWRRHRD

BIKE = BIKE (Homo sapiens, UniProt Q9NSY1); details: read-out: %Inh BIKE
DMPK2 = DMPK2 (Homo sapiens, UniProt Q6DT37); details: read-out: %Inh DMPK2
CIT = CIT (Homo sapiens, UniProt O14578); details: read-out: %Inh CIT
CAMK1G = CAMK1G (Homo sapiens, UniProt Q96NX5); details: read-out: %Inh CAMK1G
CSNK1A1L = target: T3, CSNK1A1L (Homo sapiens, UniProt Q8N752); details: read-out: %Inh CSNK1A1L
T3 sequence (Q8N752 1-337): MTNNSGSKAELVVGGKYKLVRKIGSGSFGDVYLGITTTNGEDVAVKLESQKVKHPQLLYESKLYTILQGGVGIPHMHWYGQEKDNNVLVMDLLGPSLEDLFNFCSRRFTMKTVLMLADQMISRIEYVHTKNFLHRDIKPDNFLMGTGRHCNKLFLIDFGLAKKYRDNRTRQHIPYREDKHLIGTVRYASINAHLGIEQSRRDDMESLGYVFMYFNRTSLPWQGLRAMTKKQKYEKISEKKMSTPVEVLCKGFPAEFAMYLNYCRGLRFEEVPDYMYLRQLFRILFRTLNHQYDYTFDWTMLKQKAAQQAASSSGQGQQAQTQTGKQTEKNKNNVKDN

BLK = BLK (Homo sapiens, UniProt P51451); details: read-out: %Inh BLK
EPHA5 = EPHA5 (Homo sapiens, UniProt P54756); details: read-out: %Inh EPHA5
CLK2 = CLK2 (Homo sapiens, UniProt P49760); details: read-out: %Inh CLK2
CSF1R = CSF1R (Homo sapiens, UniProt P07333); details: read-out: %Inh CSF1R
Sequence of CSF1R (P07333 20-972): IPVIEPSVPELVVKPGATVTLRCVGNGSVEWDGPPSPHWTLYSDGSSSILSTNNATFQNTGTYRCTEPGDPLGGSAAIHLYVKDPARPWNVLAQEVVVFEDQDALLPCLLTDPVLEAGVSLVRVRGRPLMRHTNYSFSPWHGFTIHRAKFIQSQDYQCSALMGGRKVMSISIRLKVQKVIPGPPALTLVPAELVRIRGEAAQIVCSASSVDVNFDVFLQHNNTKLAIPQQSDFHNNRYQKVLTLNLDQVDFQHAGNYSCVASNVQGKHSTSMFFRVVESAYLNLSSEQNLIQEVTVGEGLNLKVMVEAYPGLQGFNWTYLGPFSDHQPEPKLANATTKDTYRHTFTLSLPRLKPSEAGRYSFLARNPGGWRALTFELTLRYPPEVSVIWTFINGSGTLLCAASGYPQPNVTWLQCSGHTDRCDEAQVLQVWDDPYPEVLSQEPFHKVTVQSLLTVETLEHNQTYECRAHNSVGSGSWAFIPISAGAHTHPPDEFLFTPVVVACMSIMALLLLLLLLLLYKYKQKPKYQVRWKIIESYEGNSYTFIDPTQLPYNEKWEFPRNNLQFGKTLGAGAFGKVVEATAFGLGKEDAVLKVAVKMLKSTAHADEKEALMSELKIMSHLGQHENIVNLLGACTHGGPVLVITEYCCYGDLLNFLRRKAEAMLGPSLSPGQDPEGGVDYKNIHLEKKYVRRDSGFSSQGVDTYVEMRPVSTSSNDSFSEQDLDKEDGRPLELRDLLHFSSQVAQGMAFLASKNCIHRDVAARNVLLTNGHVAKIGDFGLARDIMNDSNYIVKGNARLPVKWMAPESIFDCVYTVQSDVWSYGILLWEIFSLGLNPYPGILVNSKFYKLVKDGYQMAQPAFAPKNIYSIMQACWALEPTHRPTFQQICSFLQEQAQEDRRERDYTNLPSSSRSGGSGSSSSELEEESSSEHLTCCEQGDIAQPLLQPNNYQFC

Sequence of DMPK2 (Q6DT37 whole entry): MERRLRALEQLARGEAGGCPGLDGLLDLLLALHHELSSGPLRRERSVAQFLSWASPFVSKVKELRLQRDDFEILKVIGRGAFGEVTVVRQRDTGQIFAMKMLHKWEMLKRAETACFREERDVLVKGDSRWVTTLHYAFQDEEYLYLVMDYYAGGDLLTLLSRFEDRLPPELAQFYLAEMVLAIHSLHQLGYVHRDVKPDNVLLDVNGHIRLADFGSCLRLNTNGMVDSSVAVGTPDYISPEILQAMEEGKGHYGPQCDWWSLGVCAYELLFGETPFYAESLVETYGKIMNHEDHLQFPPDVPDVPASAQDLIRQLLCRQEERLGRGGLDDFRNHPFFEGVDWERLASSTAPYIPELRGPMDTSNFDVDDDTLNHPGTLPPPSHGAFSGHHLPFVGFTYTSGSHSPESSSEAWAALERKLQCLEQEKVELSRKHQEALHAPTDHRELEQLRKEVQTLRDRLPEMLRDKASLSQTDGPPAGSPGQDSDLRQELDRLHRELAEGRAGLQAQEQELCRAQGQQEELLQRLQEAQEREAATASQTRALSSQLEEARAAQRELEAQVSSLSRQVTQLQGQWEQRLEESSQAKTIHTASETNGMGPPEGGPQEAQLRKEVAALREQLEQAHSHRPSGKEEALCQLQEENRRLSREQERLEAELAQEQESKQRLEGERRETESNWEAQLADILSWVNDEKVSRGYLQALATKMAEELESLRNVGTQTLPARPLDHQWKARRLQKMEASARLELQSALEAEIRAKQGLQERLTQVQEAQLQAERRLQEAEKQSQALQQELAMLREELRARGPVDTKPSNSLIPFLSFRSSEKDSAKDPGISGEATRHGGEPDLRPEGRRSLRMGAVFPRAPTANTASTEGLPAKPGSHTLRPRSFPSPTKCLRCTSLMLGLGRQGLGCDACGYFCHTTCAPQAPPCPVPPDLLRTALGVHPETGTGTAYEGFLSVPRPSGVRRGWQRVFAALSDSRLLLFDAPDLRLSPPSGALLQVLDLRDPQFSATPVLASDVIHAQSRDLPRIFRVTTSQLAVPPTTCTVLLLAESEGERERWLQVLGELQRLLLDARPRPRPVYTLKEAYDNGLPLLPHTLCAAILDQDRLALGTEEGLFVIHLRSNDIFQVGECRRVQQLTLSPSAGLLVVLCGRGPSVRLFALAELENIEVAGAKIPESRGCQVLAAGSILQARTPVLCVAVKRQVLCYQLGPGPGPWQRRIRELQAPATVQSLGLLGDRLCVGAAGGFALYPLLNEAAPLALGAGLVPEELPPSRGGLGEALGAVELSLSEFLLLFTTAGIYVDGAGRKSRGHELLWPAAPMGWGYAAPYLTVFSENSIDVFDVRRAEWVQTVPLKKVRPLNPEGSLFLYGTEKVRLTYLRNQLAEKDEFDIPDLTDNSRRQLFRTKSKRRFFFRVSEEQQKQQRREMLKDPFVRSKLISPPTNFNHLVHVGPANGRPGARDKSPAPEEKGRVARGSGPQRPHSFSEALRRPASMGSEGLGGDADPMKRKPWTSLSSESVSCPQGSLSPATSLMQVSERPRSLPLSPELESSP
Sequence of BLK (P51451 whole entry): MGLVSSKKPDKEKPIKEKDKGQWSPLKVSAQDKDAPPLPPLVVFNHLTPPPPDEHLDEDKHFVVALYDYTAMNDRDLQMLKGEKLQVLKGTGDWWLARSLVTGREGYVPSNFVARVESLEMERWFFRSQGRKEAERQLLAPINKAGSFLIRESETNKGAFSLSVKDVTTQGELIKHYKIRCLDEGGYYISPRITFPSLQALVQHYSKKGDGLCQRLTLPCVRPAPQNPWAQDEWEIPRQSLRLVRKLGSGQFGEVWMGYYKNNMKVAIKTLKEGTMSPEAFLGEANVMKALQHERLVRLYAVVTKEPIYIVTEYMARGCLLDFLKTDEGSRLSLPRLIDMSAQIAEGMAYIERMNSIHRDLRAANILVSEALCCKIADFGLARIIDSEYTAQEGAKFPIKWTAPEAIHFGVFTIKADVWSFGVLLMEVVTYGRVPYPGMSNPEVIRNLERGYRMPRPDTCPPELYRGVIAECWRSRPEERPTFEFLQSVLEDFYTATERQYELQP
Sequence of EPHA5 (P54756 25-1037): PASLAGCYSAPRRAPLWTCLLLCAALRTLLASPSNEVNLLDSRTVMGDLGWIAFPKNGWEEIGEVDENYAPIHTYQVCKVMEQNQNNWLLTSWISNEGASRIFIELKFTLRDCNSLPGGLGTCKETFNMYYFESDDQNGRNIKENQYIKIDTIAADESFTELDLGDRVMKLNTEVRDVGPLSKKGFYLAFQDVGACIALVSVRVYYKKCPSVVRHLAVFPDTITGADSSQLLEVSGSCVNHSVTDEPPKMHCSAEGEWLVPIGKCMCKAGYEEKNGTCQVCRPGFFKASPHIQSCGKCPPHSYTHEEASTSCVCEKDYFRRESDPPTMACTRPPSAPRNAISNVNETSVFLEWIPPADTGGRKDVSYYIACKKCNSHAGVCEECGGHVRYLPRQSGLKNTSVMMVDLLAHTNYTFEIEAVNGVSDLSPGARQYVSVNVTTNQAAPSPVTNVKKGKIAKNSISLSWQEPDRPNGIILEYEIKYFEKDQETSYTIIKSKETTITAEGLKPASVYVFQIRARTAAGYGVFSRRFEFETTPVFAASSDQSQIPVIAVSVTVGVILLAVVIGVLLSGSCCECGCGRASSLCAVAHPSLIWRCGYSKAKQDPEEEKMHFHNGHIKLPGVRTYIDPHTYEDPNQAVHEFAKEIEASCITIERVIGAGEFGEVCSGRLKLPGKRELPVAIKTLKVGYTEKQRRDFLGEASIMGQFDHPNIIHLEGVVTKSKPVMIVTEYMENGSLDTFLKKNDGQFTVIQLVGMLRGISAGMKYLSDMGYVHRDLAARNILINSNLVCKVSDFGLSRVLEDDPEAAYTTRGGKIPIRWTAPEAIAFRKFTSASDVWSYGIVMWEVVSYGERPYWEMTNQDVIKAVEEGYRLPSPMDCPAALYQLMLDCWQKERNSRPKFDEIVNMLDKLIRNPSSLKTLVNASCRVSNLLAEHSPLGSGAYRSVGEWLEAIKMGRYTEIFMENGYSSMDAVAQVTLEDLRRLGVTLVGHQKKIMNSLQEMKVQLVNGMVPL
Sequence of HCK (P08631 whole entry): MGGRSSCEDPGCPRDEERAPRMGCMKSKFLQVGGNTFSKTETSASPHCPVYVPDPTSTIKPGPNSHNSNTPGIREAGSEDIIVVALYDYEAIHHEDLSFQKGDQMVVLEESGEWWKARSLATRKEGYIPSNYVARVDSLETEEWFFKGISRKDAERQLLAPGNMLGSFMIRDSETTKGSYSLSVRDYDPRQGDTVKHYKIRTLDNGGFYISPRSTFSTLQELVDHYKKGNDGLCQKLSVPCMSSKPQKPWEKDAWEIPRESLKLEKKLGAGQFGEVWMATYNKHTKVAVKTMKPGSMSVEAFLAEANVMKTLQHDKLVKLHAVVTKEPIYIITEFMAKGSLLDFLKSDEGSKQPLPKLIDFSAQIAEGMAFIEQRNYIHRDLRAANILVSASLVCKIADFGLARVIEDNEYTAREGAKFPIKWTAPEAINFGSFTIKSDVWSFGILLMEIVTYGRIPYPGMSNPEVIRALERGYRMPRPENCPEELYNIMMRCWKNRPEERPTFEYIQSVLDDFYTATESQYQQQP
Sequence of CAMK1G (Q96NX5 whole entry): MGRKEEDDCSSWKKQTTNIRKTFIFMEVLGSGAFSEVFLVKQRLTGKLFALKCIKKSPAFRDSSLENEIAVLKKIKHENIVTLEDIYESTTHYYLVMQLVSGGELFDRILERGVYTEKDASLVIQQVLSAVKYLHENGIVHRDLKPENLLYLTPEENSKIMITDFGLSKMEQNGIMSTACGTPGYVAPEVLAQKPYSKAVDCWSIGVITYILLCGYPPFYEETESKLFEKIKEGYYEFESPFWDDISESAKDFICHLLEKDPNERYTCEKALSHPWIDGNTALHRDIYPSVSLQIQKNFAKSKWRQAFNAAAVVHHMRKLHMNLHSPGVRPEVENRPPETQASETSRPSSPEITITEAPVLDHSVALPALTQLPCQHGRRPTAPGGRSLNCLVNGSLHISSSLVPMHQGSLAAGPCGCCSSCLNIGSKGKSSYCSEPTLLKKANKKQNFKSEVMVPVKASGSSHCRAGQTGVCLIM

Compound | inhibition at 1 µM (HCK) | inhibition at 1 µM (ERK8) | inhibition at 1 µM (DCAMKL2) | inhibition at 1 µM (BIKE) | inhibition at 1 µM (DMPK2) | inhibition at 1 µM (CIT) | inhibition at 1 µM (CAMK1G) | inhibition at 1 µM (CSNK1A1L) | inhibition at 1 µM (BLK) | inhibition at 1 µM (EPHA5) | inhibition at 1 µM (CLK2) | inhibition at 1 µM (CSF1R)
Cn1cc(-c2cnc(N)c3c(-c4ccc5c(c4)CCN5C(=O)Cc4ccccc4)csc23)cn1 [UNC10225012A] | 86% | 11% | 0% | 0% | 81% | 0% | 0% | 0% | 93% | 0% | 19% | 99.9%
CS(=O)(=O)Cc1ccc(Nc2nccc(-c3c(-c4cccc(NC(=O)C5CCCCC5)c4)nn4ncccc34)n2)cc1 [UNC10225159A] | 1% | 0% | 15% | 1% | 35% | 10% | 0% | 0% | 0% | 0% | 10% | 79%
Cc1ccc(NC(=O)Nc2cccc(C(F)(F)F)c2)cc1 [UNC10225187A] | 0% | 0% | 0% | 4% | 0% | 29% | 10% | 0% | 0% | 0% | 36% | 0%
COc1cccc(OC)c1C(=O)Nc1cccc(-c2nn3ccccc3c2-c2ccnc(Nc3cccc(F)c3)n2)c1 [UNC10225310A] | 30% | 3% | 0% | 0% | 84% | 36% | 0% | 0% | 41% | 11% | 21% | 60%
O=c1cc(N2CCOCC2)nc2n(Cc3cccc(Cl)c3Cl)c(C3CC3)nn12 [UNC10225469A] | 0% | 13% | 7% | 0% | 0% | 0% | 5% | 0% | 0% | 6% | 25% | 0%
